Experimental findings from PubChem BioAssay AID602210 (Sanford-Burnham Center for Chemical Genomics, 2012) are described below.

Active and inactive are the calls of the source. No rule for the calls is given here.

A short description of the assay: H9c2 cardiomyoblast viability modulators under 2-DG – cell-based, ATPlite luminescence, rat, set 2, myocardial damage modulator project, dose response (AID 602210). The conditions noted are these: H9c2 rat cardiomyoblasts, 2-deoxyglucose-induced death, 2 h.
Regarding `COc1cccc(Nc2nc3ccccc3n3cnnc23)c1`, the IC50 was 17.5 µM (inactive).
On to `COc1ccc(C(C(=O)NC2CCCC2)N(C(=O)c2snc(C(N)=O)c2N)c2cccc(O)c2)cc1` (stereo not drawn), for which the IC50 is 13.3 µM (inactive).
For the compound `O=S(=O)(c1ccccc1)N1CCN(c2nc(-c3cccnc3)nc3ccccc23)CC1`, the IC50 is 12 µM (inactive).
With `Cc1nc(N2CCN(c3ccccn3)CC2)c2c(C)c(C(=O)Nc3ccccc3F)sc2n1` the figure was 16.4 µM (inactive).
With `COc1ccc(C(=O)COC(=O)C(CCCCN2C(=O)C3C4C=CC(C4)C3C2=O)N2C(=O)C3C4C=CC(C4)C3C2=O)cc1` (stereo not drawn), the IC50 was 11.8 µM (inactive).
The figure for `O=C(NCC(=O)N(Cc1cccs1)C(C(=O)NC1CCCC1)c1ccco1)c1cccs1` (stereo not drawn) is 24.5 µM (inactive); for `NC(=O)c1nsc(C(=O)N(c2ccccc2)C(C(=O)NC2CCCC2)c2ccc3ncccc3c2)c1N` (stereo not drawn) it is 6.5 µM.
As for `CC(=O)Nc1ccc(NS(=O)(=O)c2cc(-c3n[nH]c(=O)c4ccccc34)ccc2C)cc1`, the IC50 is 44 µM (inactive).
In the case of `COc1cc(OC)cc(C(=O)Nc2ccc(C(=O)Nc3ccccc3OC)cc2)c1`, the IC50 was 16.6 µM (inactive).
With `O=C(NCCN1CCOCC1)c1cnn2c(-c3ccccc3)cc(-c3ccccc3)nc12` the figure was 30.8 µM (inactive).
With `CCn1c(O)c(/C=N/N=C2CCCCC2)c2cc(C3=NNC(=O)CC3)ccc21` the figure was 21.6 µM (inactive).
With `COc1ccccc1NC(=O)CSc1ccc2nnc(-c3ccc(C)cc3)n2n1`, the IC50 was > 79 µM (inactive).
With `CCN(C[C@H]1N[C@@](C)(C(=O)OC)[C@H]2C(=O)N(Cc3ccccc3)C(=O)[C@@H]12)C(=O)c1ccc(C(C)(C)C)cc1`, the IC50 is 17.9 µM (inactive).
For `COc1ccc(CCNc2nc(-c3cccnc3)nc3ccccc23)cc1OC`, the IC50 is 8.24 µM.
With `CCN(CC)c1ccc(C2C(C(=O)OC(C)C)C(=O)CC(C)(O)C2C(=O)OC(C)C)cc1` (stereo not drawn), the IC50 is 20.5 µM (inactive).
`Cc1ccc(NC(=O)c2nc[nH]c2C(=O)NCCCNC(=O)c2[nH]cnc2C(=O)Nc2ccc(C)cc2)cc1`: the IC50 was 1.33 µM.
As for `COc1cc(/C=N\NC(=O)c2cccnc2)ccc1OC(=O)c1ccccc1Cl`, the IC50 is > 79 µM (inactive).
As for `Cc1nnc2ccc(-c3cccc(NC(=O)c4ccc(Cl)nc4)c3)nn12`, the IC50 is 45.9 µM (inactive).
With `Cc1cc(C)c2c(N)c(C(=O)N/N=C/c3cccnc3)sc2n1`, the IC50 was 25.5 µM (inactive).
`CCC1(CC)NC(=O)N(CC(=O)OCC(=O)Nc2ccccc2[N+](=O)[O-])C1=O`: the IC50 was 21.4 µM (inactive).
For the compound `COCCCN(Cc1ccco1)C(=O)Cn1ncc2c([nH]c3ccccc32)c1=O`, the IC50 is 25.5 µM (inactive).
`O=C(Nc1ccc(C(=O)N2CCOCC2)cc1)c1cnn2c(C(F)F)cc(-c3ccccc3)nc12`: the IC50 is > 79 µM (inactive).
With `Cc1cccc(NC(=O)c2nc[nH]c2C(=O)NCCCCNC(=O)c2[nH]cnc2C(=O)Nc2cccc(C)c2)c1` the figure was 3.32 µM.
Take `COc1cc(NC(=O)c2csc(-c3ccncc3)n2)cc(C(=O)Nc2cccc(C(F)(F)F)c2)c1`: the IC50 is 7.25 µM.
Regarding `Cc1nc(SCC(=O)N2CCN(c3ccccc3)CC2)c2oc3ccccc3c2n1`, the IC50 is 25.8 µM (inactive).
For the compound `COc1ccc(-c2cc(-c3nnc(COC(=O)C4CC4)o3)c3ccccc3n2)cc1OC`, the IC50 was 8.35 µM.
With `COc1ccc(-c2cc(NC(C)=O)c3ncc(-c4cccc(C(C)=O)c4)n3c2)cc1OC`, the IC50 was 8.06 µM.
Consider `COc1cccc(-c2cnc3c(NC(C)=O)cc(-c4cc(OC)c(OC)c(OC)c4)cn23)c1`, for which the IC50 was > 79 µM (inactive).
Regarding `Cc1cc(C)cc(OCC(=O)Nc2cccc(-c3nc4ncccc4o3)c2)c1`, the IC50 was 14.3 µM (inactive).
Take `COc1ccc(-c2cc(NC=O)c3ncc(-c4ccc(C(C)=O)cc4)n3c2)cn1`: the IC50 was 10.1 µM (inactive).
With `COc1cc(/C=C(\C#N)C(=O)Nc2ccccc2)ccc1OCCN1CCOCC1` the figure was > 79 µM (inactive); with `O=C(CNC(=O)c1[nH]cnc1C(=O)NC(c1ccccc1)c1ccccc1)OCc1ccccc1`, 22.3 µM (inactive); with `NC(=O)c1nsc(C(=O)N(Cc2ccco2)C(C(=O)NCc2ccccc2)c2ccc(O)cc2)c1N` (stereo not drawn), 14.9 µM (inactive).
In the case of `COc1ccc(OC)c(N(CC(=O)Nc2cccnc2)S(=O)(=O)c2ccc(OC)c(OC)c2)c1`, the IC50 was 32.2 µM (inactive).
On to `COc1cccc(C(=O)Nc2cccc(-c3nnc(-c4ccco4)o3)c2)c1`, for which the IC50 is 12.6 µM (inactive).
Regarding `Cc1c(C(=O)NCC2COc3ccccc3O2)oc2ccc(S(=O)(=O)N3CCOCC3)cc12` (stereo not drawn), the IC50 was 5.65 µM.
The figure for `COc1ccc(CNn2c(-c3cccs3)nc3ccccc3c2=O)cc1OC` is 12.9 µM (inactive).
Consider `O=C(c1cc(=O)[nH]c2ccccc12)N1CCN(S(=O)(=O)c2ccc(Cl)cc2)CC1`, for which the IC50 was 7.15 µM.
Consider `CCN(CC)C(=O)c1ccc(-c2nnc(Nc3ccc(O)cc3)c3ccccc23)cc1`, for which the IC50 was 44.2 µM (inactive).
On to `CC(=O)c1cccc(NC(=O)Nc2ccc3c(c2)N(C)C(=O)CS3)c1`, for which the IC50 was > 79 µM (inactive).
With `CC(=O)Nc1cc(C)nn1-c1nc2ccccc2s1`, the IC50 is > 79 µM (inactive).
With `CC1Cc2ccccc2N1C(=O)c1cc2c(=O)n3ccccc3nc2n1C` (stereo not drawn) the figure was 7.6 µM; with `COc1ccc(OC)c(NC(=O)COC(=O)c2c3c(nc4ccccc24)CCCC3)c1`, 7.78 µM; with `COc1cccc(Nc2nc3ccccc3n3nnnc23)c1`, > 79 µM (inactive).
On to `COc1ccc2occ(C(=O)c3coc4ccc(O)c(CN(C)C)c34)c2c1`, for which the IC50 was 68 µM (inactive).
Take `COc1cccc(CN2CCN(C(=O)c3cc(-c4cccnc4)nc4ccc(C)cc34)CC2)c1`: the IC50 is 48.8 µM (inactive).
Take `c1ccc(-c2nc(-n3ccnc3)nc(-n3ccnc3)n2)cc1`: the IC50 was 9.07 µM.
For `O=C(Nc1ccc2c(c1)OCO2)c1cnn2c(C(F)(F)F)cc(-c3ccco3)nc12`, the IC50 is > 79 µM (inactive).
Regarding `O=C(N/N=C\c1ccccn1)c1cccc(C(=O)N/N=C\c2ccccn2)n1`, the IC50 is 10.2 µM (inactive).
As for `COc1cccc(C(=O)Nc2cc(C)c3c(=O)oc4ccccc4c3n2)c1`, the IC50 is > 79 µM (inactive).
`COc1cccc(-c2cnc3c(NC=O)cc(-c4cc(OC)c(OC)c(OC)c4)cn23)c1`: the IC50 was 14.2 µM (inactive).
With `CC/C(C)=N\N=C\c1c(O)n(CC)c2cc(C3=NNC(=O)CC3)ccc12`, the IC50 was > 79 µM (inactive).
With `Fc1ccc(-n2cc(-c3ccccc3)c3c(N4CCOCC4)ncnc32)cc1`, the IC50 is 6.7 µM.
`CN(CC1COc2ccccc2O1)c1nc(-c2cccnc2)nc2ccccc12` (stereo not drawn): the IC50 is 18.9 µM (inactive).
For the compound `COc1cccc(OC)c1C(=O)Nc1cc(C)nn1-c1nc2ccccc2[nH]1`, the IC50 was 4.52 µM.
As for `COc1ccc(-c2cc(NC(C)=O)c3ncc(-c4ccc(OC)c(OC)c4)n3c2)cc1OC`, the IC50 is 14.8 µM (inactive).
Regarding `C/C(=N\Nc1nnc2c3ccccc3n(C)c2n1)c1ccc(C)o1`, the IC50 is 12.3 µM (inactive).
For `COc1ccc(-c2cc(-c3nnc(COC(=O)c4ccncc4)o3)c3ccccc3n2)cc1OC`, the IC50 is 18.1 µM (inactive).
With `COc1cc(CN2C[C@@H](CO)O[C@@H](n3cnc4c(Nc5ccccc5)ncnc43)C2)cc(OC)c1OC`, the IC50 was 17.5 µM (inactive).
`COc1cc(/C=N/NC(=O)c2cccnc2)ccc1OCC(=O)Nc1ccccc1Cl`: the IC50 is 7.84 µM.
As for `COc1cccc(-c2cnc3c(NC=O)cc(-c4cc(C)c(O)c(C)c4)cn23)c1`, the IC50 is 18.9 µM (inactive).
With `NC(=O)c1cccc(-c2coc3c(C(=O)NCCc4ccccc4)cccc23)c1`, the IC50 is 13.3 µM (inactive).
Take `CCOC(=O)C1=C(COC(=O)/C=C/c2ccc(F)cc2)NC(=O)NC1C` (stereo not drawn): the IC50 was 18.1 µM (inactive).
As for `COc1ccc(C(=O)COC(=O)Cn2[nH]c(=O)c3ccccc3c2=O)c(OC)c1`, the IC50 was 52.7 µM (inactive).
For `COc1ccc(C(=O)O/N=C(/c2ccccc2)c2ccncc2)cc1OC`, the IC50 was 15.9 µM (inactive).
For `COc1ccccc1OP(=O)(Nc1cccnc1)Oc1ccccc1OC`, the IC50 was 8.19 µM.
With `COc1cc(-c2cc(C(=O)Nc3ccccc3N3CCOCC3)c3ccccc3n2)cc(OC)c1OC` the figure was 11.2 µM (inactive); with `COc1ccc(C(=O)Nc2cc(C)nn2-c2nc3ccccc3[nH]2)c(OC)c1`, 16.1 µM (inactive).

Usually IC50 stands for the concentration needed to halve the response being measured.
